# Reference: patent US6632977B2 (priority 1996, dated 2003)
# Read-outs that look alike come from different tables or passages of the source.
# What was measured:
# adenylate cyclase = test: Adenylate cyclase activity in brain homogenates after morphine deficiency induced by naloxone; type: in vivo, mice; parameters: Adenylate cyclase activity stimulated by forskolin: dose or concentration left out as unconfirmed; conditions: for increase in adenylate cyclase activity in the striatum: naloxone after chronic morphine; for Adenylate cyclase activity stimulated by forskolin: FK; for Adenylate cyclase activity stimulated by forskolin / Adenylate cyclase activity, basal: chronic morphine then naloxone
# δ receptor [1] = target: T1, δ receptor (Mus musculus, UniProt P32300); test: biochemical
# T1 sequence (P32300 whole entry): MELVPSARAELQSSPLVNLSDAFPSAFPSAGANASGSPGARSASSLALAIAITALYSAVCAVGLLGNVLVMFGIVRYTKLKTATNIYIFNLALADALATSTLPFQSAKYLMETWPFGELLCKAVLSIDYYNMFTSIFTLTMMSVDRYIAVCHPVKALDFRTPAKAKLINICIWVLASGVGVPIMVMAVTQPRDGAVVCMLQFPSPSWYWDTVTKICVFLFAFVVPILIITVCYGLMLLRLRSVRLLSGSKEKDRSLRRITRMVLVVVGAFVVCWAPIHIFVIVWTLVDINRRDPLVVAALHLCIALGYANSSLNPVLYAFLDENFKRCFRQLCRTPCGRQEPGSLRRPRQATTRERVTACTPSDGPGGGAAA
# δ receptor [2] = target: T1, δ receptor; conditions: for Bmax: [3H]NTI, μ receptor gene line; for NTI Bmax: kappa receptor gene line
# transplant rejection = conditions: in vivo; cited from earlier work
# [3] = tested on: mixed lymphocyte reaction (MLR); conditions: in vitro; cited from earlier work
smiles,measurement,setting,value
CN1CC[C@]23c4c5ccc(O)c4O[C@H]2[C@@H](O)C=C[C@H]3[C@H]1C5 [morphine],increase in adenylate cyclase activity in the striatum,adenylate cyclase; animals deficient in the μ receptor,absent
same,Adenylate cyclase activity stimulated by forskolin,"adenylate cyclase; cerebellum, μ +/+",966 ± 55 pmoles of cyclic AMP formed/minute/mg of protein
same,"Adenylate cyclase activity, basal","adenylate cyclase; cerebellum, μ +/+",209 ± 30 pmoles of cyclic AMP formed/minute/mg of protein
same,Adenylate cyclase activity stimulated by forskolin,"adenylate cyclase; cerebellum, μ −/−",979 ± 73 pmoles of cyclic AMP formed/minute/mg of protein
same,"Adenylate cyclase activity, basal","adenylate cyclase; cerebellum, μ −/−",213 ± 42 pmoles of cyclic AMP formed/minute/mg of protein
same,Adenylate cyclase activity stimulated by forskolin,"adenylate cyclase; striatum, μ +/+",1473 ± 43 pmoles of cyclic AMP formed/minute/mg of protein
same,"Adenylate cyclase activity, basal","adenylate cyclase; striatum, μ +/+",401 ± 22 pmoles of cyclic AMP formed/minute/mg of protein
same,Adenylate cyclase activity stimulated by forskolin,"adenylate cyclase; striatum, μ −/−",1158 ± 108 pmoles of cyclic AMP formed/minute/mg of protein
same,"Adenylate cyclase activity, basal","adenylate cyclase; striatum, μ −/−",304 ± 28 pmoles of cyclic AMP formed/minute/mg of protein
same,increase in adenylate cyclase activity in the striatum,adenylate cyclase; wild mice,30%
"Oc1ccc2c3c1O[C@H]1c4[nH]c5ccccc5c4C[C@@]4(O)[C@@H](C2)N(CC2CC2)CC[C@]314 [NTI, naltrindole]",Kd,"δ receptor [1]; Kd, [3H]NTI, μ receptor gene line, heterozygous +/−",0.075 nM
same,Kd,"δ receptor [1]; Kd, [3H]NTI, μ receptor gene line, homozygous −/−",0.082 nM
same,Kd,"δ receptor [1]; Kd, [3H]NTI, μ receptor gene line, wild +/+",0.068 nM
same,Kd,"δ receptor [1]; NTI Kd, kappa receptor gene line, heterozygous +/−",0.109 nM
same,Kd,"δ receptor [1]; NTI Kd, kappa receptor gene line, homozygous −/−",0.114 nM
same,Kd,"δ receptor [1]; NTI Kd, kappa receptor gene line, wild +/+",0.108 nM
same,Bmax,δ receptor [2]; heterozygous +/−,0.103
same,Bmax,δ receptor [2]; homozygous −/−,0.124
same,Bmax,δ receptor [2]; wild +/+,0.095
same,binding curves (Scatchard) compared between genotypes,"δ receptor [2]; brains of +/+, +/− and −/− MOR mice",superimposable
same,change in binding of the delta ligands,δ receptor [2]; kappa mutant animals with respect to wild animals,no change in the binding
same,NTI Bmax,δ receptor [2]; heterozygous +/−,0.170 pmole/mg proteins
same,NTI Bmax,δ receptor [2]; homozygous −/−,0.190 pmole/mg proteins
same,NTI Bmax,δ receptor [2]; wild +/+,0.204 pmole/mg proteins
same,effect on transplant rejection,transplant rejection,prevents transplant rejection
same,effect on the mixed lymphocyte reaction (MLR),[3],suppressant effect
